For assay [1], the system named is peripheral blood of Kunming mice. Briefly: labeling of peripheral blood with targeting polypeptide with pre-targeting binding handle, flow cytometry. The assay is classed as cell-based. Particulars: 10 µM peptide; for staining of cell populations in peripheral blood: 4°C 30 min, Strep-PE, CD19 and CD5 antibodies; for identity of the labeled B lymphocyte population: CD19 and CD5 counterstain. The text has this: (2) Labeling of peripheral blood with the targeting polypeptide connected with pre-targeting binding handle: Healthy Kunming mice were taken and killed by cervical dislocation, and their peripheral blood was collected using anticoagulant blood vessels.
KS24 and KS29 were biotinylated according to the method described in (1) to obtain targeting polypeptides bio-KS24 and bio-KS29 connected with pre-targeting binding handle. The targeting polypeptides bio-KS24 and bio-KS29 each connected with the pre-targeting binding handle were added to 50 µL of peripheral blood samples, respectively, to be diluted to 100 µL with 1×PBS so that the concentration of the targeting polypeptides bio-KS24 and bio-KS29 connected with the pre-targeting binding handle in the solution was 10 µM, and the mixture was incubated at 4°C for 30 min. After the incubation, red blood cells in the peripheral blood were lysed using a conventional red blood cell lysis reagent in the art according to the instructions, washed twice with 1×PBS, resuspended with 100 µL of 1×PBS, and 1 µL/tube of phycoerythrin-labeled Strep-PE, 0.5 µL/tube of anti-mouse CD19 Antibody, and 0.5 µL/tube of FITC anti-mouse CD5 Antibody were added, and incubated at room temperature for 1 h. After the incubation, the cells were washed twice with 1× PBS and analyzed by flow cytometry.
In general terms: Flow cytometry measures light scatter and fluorescence of single cells or particles in a stream.

The test system of assay [2] is peritoneal free macrophages. Briefly: pre-targeting delivery after intraperitoneal injection, free peritoneal cells, fluorescence microscopy. In kind it is in vivo, Kunming mice. Particulars: peptide 10 µM intraperitoneal, Strep-PE intraperitoneal 3 h later, killed 1 h later; F4/80-APC counterstain. As to the method:
(§1) The specific experimental steps are as follows: Biotinylated targeting polypeptides bio-KS24 and bio-KS29 (i.e., targeting polypeptides connected with the pre-targeting binding handles) were prepared according to the steps described in the above examples.
(§2) The targeting polypeptides (bio-KS24 and bio-KS29) connected with the pre-targeting binding handles were prepared, respectively, with a final concentration of 10 µM and a final volume of 100 µL. Then, the mixture was diluted with PBS to 4 times of the original volume (i.e., 100 µL of the mixed system was diluted to 400 µL), and then injected into Kunming mice intraperitoneally, with an injection volume of 400 µL per mouse. After the injection of the targeted polypeptide for 3 h, 5 µL Trep-PE was diluted into 100 µL of 1× PBS and intraperitoneally injected into mice. The mice were killed 1 h after the injection, and free peritoneal cells and mesentery were extracted and counterstained with F4/80-APC antibody. After incubation, the cells were washed twice with 1× PBS and observed under a fluorescence microscope.
(§3) Untreated healthy mice were used as controls.

A further assay relates to peritoneal macrophages. Briefly: in vivo labeling of peritoneal macrophages by targeting polypeptide with pre-targeting binding handle. Also on record: species or system Kunming mice. Particulars: 10 µM peptide premixed with Strep-PE, intraperitoneal injection, 4 h; F4/80-APC counterstain; flow cytometry. As to the method:
• (1) In vivo labeling of peritoneal macrophages by targeting polypeptides connected with pre-targeting binding handles: In this example, the targeting polypeptides KS24 (amino acid sequence: […] (SEQ ID NO: 29)) and KS29 (amino acid sequence: […] (SEQ ID NO: 30)) were used. The pre-targeting binding handle was biotin. The biotinylation steps of the targeting polypeptides were as follows: the biotinylation of targeting polypeptides was carried out by adding biotinylated amino acids during peptide synthesis, so that the biotinylation sites can be controlled. Two biotinylated targeting polypeptides (bio-KS24 and bio-KS29) were respectively connected to phycoerythrin-labeled streptavidin (Strep-PE), where streptavidin served as a linker, and the phycoerythrin was connected through the specific binding of the linker to the pre-targeting binding handle (biotin-avidin system) to the targeting polypeptide for immune cell labeling and tracing. The mixtures were incubated together at room temperature for 1 h. In a 100 µL reaction system, the final concentration of the biotinylated targeting polypeptide was 10 µM, and 1 µL of Strep-PE was added. After the incubation, two groups of healthy female Kunming mice (3 mice in each group) were selected. […] After incubation, the cells were washed twice with 1× PBS and analyzed using flow cytometry. […]

The subject of assay [3] is macrophages on the mesentery. Briefly: pre-targeting delivery after intraperitoneal injection, mesentery, fluorescence microscopy. The assay is classed as in vivo, Kunming mice. Particulars: peptide 10 µM intraperitoneal, Strep-PE intraperitoneal 3 h later, killed 1 h later; F4/80-APC counterstain. As to the method: as §1, §2, §3
Assay [4] has as its target T1, Peptide segment KL19 (KEQPDPGAVAAAAILRAIL).
T1 construct: Synthetic peptide used as ELISA coating antigen; Derived from the C-terminal fragment of Triokinase/FMN cyclase, with an added N-terminal K
T1 peptide: KEQPDPGAVAAAAILRAIL
Briefly: indirect ELISA, peptide as coating antigen.

Where no end group is shown, it is not given here.

For the molecule “bio-KS29: biotinylated targeting polypeptide KS29, KSSARLEQPDPGAVAAAAILRAILEVLQS (SEQ ID NO: 30) (also: biotinylated, site not given here)”, in assay [1], the “staining of cell populations in peripheral blood” value was “can stain a subset of B lymphocyte population and granulocyte population”; the “identity of the labeled B lymphocyte population” value is “CD5^+ B lymphocytes”. Also, in assay [2], the “pre-labeling of free peritoneal macrophages” value is reported as “could pre-label macrophages”. Further, the “recognition of macrophages in peritoneal cells” value in the assay with peritoneal macrophages is “can selectively recognize macrophages in peritoneal cells of mice”. The “pre-labeling of macrophages on the mesentery” value in assay [3] is reported as “could pre-label macrophages on the mesentery”.
Regarding “bio-KS24: biotinylated targeting polypeptide KS24, KEQPDPGAVAAAAILRAILEVLQS (SEQ ID NO: 29) (also: biotinylated, site not given here)”, in assay [1], the “staining of cell populations in peripheral blood” value was “can stain a subset of B lymphocyte population and granulocyte population”; the “identity of the labeled B lymphocyte population” value is recorded as “CD5^+ B lymphocytes”. Also, in assay [2], the “pre-labeling of free peritoneal macrophages” value was “could pre-label macrophages”. In addition, in the assay on peritoneal macrophages, the “recognition of macrophages in peritoneal cells” value is “can selectively recognize macrophages in peritoneal cells of mice”. For the same molecule, the “pre-labeling of macrophages on the mesentery” value in assay [3] is given as “could pre-label macrophages on the mesentery”.

B1: KA-001 monoclonal antibody (antibody, mouse IgG1, kappa, V domains shown)
VH: DVKIVESGGGLVKLGGSLKLSCAASGFTFSRNYMSWVRQTPEKRLELVAGINNNGGSTYYPDTVKGRFTISRDNAKNTLYLQMSSLRSEDTAIYYCAKRGFITTVGAMDYWGQGISVTVSS
VL: DIQMTQTTFSLSASLGDRVTISCRASQDISNYLNWYQQIPDGTVKLLIYYTSRLHSGVPSRFSGSGSGTDYSLTISNLEQEDIATYFCQQVHTLPYTFGGGTKLEMKR
For B1, in assay [4], the binding result was “no binding”.

The values are drawn from patent EP4621052A1, “IMMUNE CELL TARGETING PROBE, PRE-TARGETING RECOGNITION AND DRUG DELIVERY SYSTEM BASED ON PROBE, AND USE THEREOF” (Guangdong Keyangle Life Technology Co., Ltd., priority 2022, dated 2024).
